In assay [1] the test system is Acinetobacter baylyi ADP1 wild type. Kind of assay: microbe, parasite or virus in culture. Type of assay: cell-based. As to conditions: A. baylyi wild type. The method, then: (§1) Culture, genetic manipulation and MIC measurements of A. baylyi ADP1 were conducted according to previously reported procedures[46],[51]. Point mutants were constructed in a two-step procedure following ref. [52] with the introduction and excision of the integration cassette at codon 66 of pepA, wherein the excising fragment of otherwise wild-type chromosomal DNA sequence from codon 406 of pepA to codon 193 of lptG bore the desired mutation and the resulting clones were screened by amplicon sequencing from codon 81 of HolC to codon 501 of GpmI, whereas lpxM deletion was achieved following the same procedure except that the integration cassette insertion and excision removed codons 79–279 of lpxM to avoid interference with neighbouring and overlapping genes that a larger deletion may risk and replaced codon 78 with an ochre stop codon to prevent a readthrough resulting in an aberrant fusion, with the excising fragment sequence spanning from codon 211 of sppA to codon 497 of ComA and verified by amplicon sequencing from codon 94 of MhpC to codon 327 of ComA as well as by absence of a PCR product corresponding to a region spanning codons 79 to 279 of lpxM to check for duplications. A deletion of the lon protease was made in the same manner to produce the stain used for expression and purification of LptB2FG to mimic the BL21 strain of E. coli used in the rest of purifications, for which the region encompassing 72 base pairs (bp) upstream of the lon start codon and 1 bp downstream of the lon stop codon was excised after being replaced with the same integration cassette, yielding a markerless deletion, with the excising fragment sequence spanning from codon 491 of ArnT to codon 40 of 45_DOPA_Dioxygenase and verified by amplicon sequencing spanning from codon 322 of ArnT to codon 221 of 45_DOPA_Dioxygenase as well as by absence of a PCR product corresponding to a region spanning from codons 328 to 768 of lon to check for duplications. Following amplicon confirmation, three validated isolates of each constructed mutant were tested for susceptibility to a panel of antibiotics with […] known mechanisms of action as a further validation step to ensure congruence of phenotypes across replicates, which was confirmed in all cases and one of the validated replicates was later used for MIC measurements reported here.
(§2) MIC determinations were performed by broth microdilution in line with CLSI guidelines (CLSI M07-A11 2018). Bacterial inocula were prepared by diluting overnight liquid cultures in LB. Antibacterial panels containing antibacterial solutions were inoculated with an appropriate volume of inoculum to give a final inoculum of about 5 × 10^5 c.f.u. ml^−1 and desired test concentrations of antibacterial agents in standard 96-well plates with 0.1 ml of culture per well. The test plates were incubated for 20–24 h and optical density (OD600) was recorded using a plate reader. MIC values corresponded to the lowest compound concentration inhibiting bacterial growth beyond which OD ceased to decrease.

The test system of assay [2] is Acinetobacter baylyi ΔlpxM. Kind of assay: MIC by broth microdilution, A. baylyi ΔlpxM. Type of assay: cell-based. The procedure:
as §1, §2
(In general: Broth dilution looks for growth in wells or tubes with falling amounts of substance.)

The target in assay [3] is His-tagged LptB2FG (ablLptB2FG) (Acinetobacter baylyi, UniProt Q6FFD6+Q6FFD7). Kind of assay: Radioligand binding SPA, LptB2FG.
Experimental: The binding of radioligand [^3H]-RO7223280 to ablLptB2FG and ablLptB2FGC was measured by bead-based SPA. All steps were performed in SEC buffer (20 mM Tris pH 7.5, 300 mM NaCl, 5% glycerol, 0.5 mM TCEP, 0.05% DDM ± 10 µM E.coli J5 LPS(Rc) [sequence] (Enzo Life Sciences)) and at 4 °C unless otherwise indicated. Purified protein was first incubated with Copper PVT HIS-tag beads (Perkin Elmer) for 1.5 h under gentle rotation. Twelve radioligand concentrations were added to the PVT–protein mix and incubated for another 30 min. […] The SPA plates were sealed (TopSeal, Perkin Elmer) and stored at 4 °C overnight. Before the measurement, plates were mixed on a shaker for 20 min, 750 rpm at room temperature and the seal was thoroughly wiped with antistatic spray to reduce electrostatic events. Scintillation data were recorded with a Topcount NXT C384, in the form of three independent replicates each consisting of three technical triplicates. Specific binding was calculated by subtracting non-specific binding raw counts from total binding raw counts. The dissociation constant Kd and standard deviation of the three independent replicates are reported and were calculated by the GraphPad Prism ‘One site – specific binding’ tool.
Assay [4] deals with His-tagged LptB2FGC (ablLptB2FGC). As to conditions: SPA. The method, then: The binding of radioligand [^3H]-RO7223280 to ablLptB2FG and ablLptB2FGC was measured by bead-based SPA. All steps were performed in SEC buffer (20 mM Tris pH 7.5, 300 mM NaCl, 5% glycerol, 0.5 mM TCEP, 0.05% DDM ± 10 µM E.coli J5 LPS(Rc) […] (Enzo Life Sciences)) and at 4 °C unless otherwise indicated. Purified protein was first incubated with Copper PVT HIS-tag beads (Perkin Elmer) for 1.5 h under gentle rotation. Twelve radioligand concentrations were added to the PVT–protein mix and incubated for another 30 min. […] The SPA plates were sealed (TopSeal, Perkin Elmer) and stored at 4 °C overnight. Before the measurement, plates were mixed on a shaker for 20 min, 750 rpm at room temperature and the seal was thoroughly wiped with antistatic spray to reduce electrostatic events. Scintillation data were recorded with a Topcount NXT C384, in the form of three independent replicates each consisting of three technical triplicates. Specific binding was calculated by subtracting non-specific binding raw counts from total binding raw counts. The dissociation constant Kd and standard deviation of the three independent replicates are reported and were calculated by the GraphPad Prism ‘One site – specific binding’ tool.

[5] abbreviates: Acinetobacter baylyi, ADP1WILDTYPE, read-out: MIC.

pKd: −log10 of the molar value. “And” between values parts separate entries of the source, which are not always exact repeats. Identical values can stand only once. Like-named read-outs stand apart in the source and are kept apart here.

We go through seven compounds from PMC10794137, “A new antibiotic traps lipopolysaccharide in its intermembrane transporter” (Nature, 2024).

His-tagged LptB2FG (ablLptB2FG), sequence (Q6FFD7 1-366): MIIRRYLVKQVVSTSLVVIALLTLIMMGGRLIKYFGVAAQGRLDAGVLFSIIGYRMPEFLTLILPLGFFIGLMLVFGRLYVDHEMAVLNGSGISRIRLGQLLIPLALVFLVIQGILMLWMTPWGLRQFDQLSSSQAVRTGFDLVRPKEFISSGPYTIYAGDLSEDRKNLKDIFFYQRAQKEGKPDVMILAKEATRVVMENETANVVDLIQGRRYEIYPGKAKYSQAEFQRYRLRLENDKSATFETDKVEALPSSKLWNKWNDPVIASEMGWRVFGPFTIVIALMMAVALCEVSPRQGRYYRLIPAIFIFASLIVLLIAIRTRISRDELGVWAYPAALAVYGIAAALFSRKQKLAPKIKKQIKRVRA
His-tagged LptB2FG (ablLptB2FG), sequence (Q6FFD6 1-356): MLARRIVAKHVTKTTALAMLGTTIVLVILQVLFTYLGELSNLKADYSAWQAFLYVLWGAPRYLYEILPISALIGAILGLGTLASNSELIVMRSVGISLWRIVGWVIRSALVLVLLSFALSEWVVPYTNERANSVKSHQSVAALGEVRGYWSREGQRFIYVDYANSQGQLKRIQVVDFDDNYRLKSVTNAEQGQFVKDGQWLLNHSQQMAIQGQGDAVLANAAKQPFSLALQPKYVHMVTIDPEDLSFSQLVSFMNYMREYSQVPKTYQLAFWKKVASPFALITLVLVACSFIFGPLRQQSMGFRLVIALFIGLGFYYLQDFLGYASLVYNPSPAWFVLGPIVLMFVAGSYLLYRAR
His-tagged LptB2FG (ablLptB2FG), sequence (Q6FC66 1-249 partner): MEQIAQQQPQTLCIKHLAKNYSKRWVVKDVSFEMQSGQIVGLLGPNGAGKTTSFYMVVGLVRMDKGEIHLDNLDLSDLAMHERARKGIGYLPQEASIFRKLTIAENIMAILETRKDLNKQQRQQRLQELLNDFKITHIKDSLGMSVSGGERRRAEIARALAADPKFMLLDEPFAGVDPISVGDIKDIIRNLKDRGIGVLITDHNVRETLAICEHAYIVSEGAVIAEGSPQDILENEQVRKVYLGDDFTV

Consider `CO[C@H]1/C=C/O[C@@]2(C)Oc3c(C)c(O)c4c(O)c(c(/C=N/N5CCN(C)CC5)c(O)c4c3C2=O)NC(=O)/C(C)=C\C=C\[C@H](C)[C@H](O)[C@@H](C)[C@@H](O)[C@@H](C)[C@H](OC(C)=O)[C@@H]1C` [Rifampicin], for which the MIC is 1.6 µM and 1.3 µg/mL in assay [1] (setting [5]); 0.6 µM and 0.5 µg/mL in assay [2] (Acinetobacter baylyi).
Take `CN[C@H](CC(C)C)C(=O)N[C@H]1C(=O)N[C@@H](CC(N)=O)C(=O)N[C@H]2C(=O)N[C@H]3C(=O)N[C@H](C(=O)N[C@H](C(=O)O)c4cc(O)cc(O)c4-c4cc3ccc4O)[C@H](O)c3ccc(c(Cl)c3)Oc3cc2cc(c3O[C@@H]2O[C@H](CO)[C@@H](O)[C@H](O)[C@H]2O[C@H]2C[C@](C)(N)[C@H](O)[C@H](C)O2)Oc2ccc(cc2Cl)[C@H]1O` [Vancomycin]: the MIC in assay [1] (setting [5]) is 500 µM and 700 µg/mL; in assay [2] (Acinetobacter baylyi), 17 µM and 25 µg/mL.
For `CO[C@H]1[C@H](OC(=O)c2ccc(C)[nH]2)[C@H](O)[C@@H](Oc2ccc3c(O)c(NC(=O)c4c[nH]c(C(=O)Nc5c(O)c6ccc(O[C@H]7OC(C)(C)[C@@H](OC)[C@H](OC(=O)c8ccc(C)[nH]8)[C@@H]7O)c(C)c6oc5=O)c4C)c(=O)oc3c2C)OC1(C)C` [Coumermycin A1], the MIC is 5 µM and 6 µg/mL in assay [1] (setting [5]); 0.16 µM and 0.18 µg/mL in assay [2] (Acinetobacter baylyi).
On to `Oc1cc(Cl)ccc1Oc1ccc(Cl)cc1Cl` [Triclosan], for which the MIC in assay [1] (setting [5]) was 0.126 µM and 0.036 µg/mL; in assay [2] (Acinetobacter baylyi) it was 0.03 µM and 0.009 µg/mL.
One may read the pKd as the negative decadic logarithm of the Kd, by convention in mol/L. A higher pKd goes with a small Kd. With `CN1C(=O)[C@H](CCCCN)NC(=O)[C@H](CCCN)NCc2cccnc2Sc2cccc(-c3ccc(C(=O)O)cc3)c2CNC(=O)[C@@H]1Cc1c[nH]c2ccccc12` [[^3H]-RO7223280], the “Binding of radiolabelled 2 to LptB2FG” value in assay [3] (binding dependent on presence of LPS) is on record as “bound to LptB2FG”. The compound further showed a pKd in assay [3] (used as constraint for Ki fit) of 7.07. Further, the “Binding of radiolabelled 2 to LptB2FGC” value in assay [4] was “not LptB2FGC”.
Take Bacitracin: the MIC in assay [1] is 700 µg/mL; in assay [1] (read-out: MIC) it was 500 µM; in assay [2] (A. baylyi ΔlpxM) it was 20 µM and 30 µg/mL.
Take `CO[C@@H]1[C@@H](OC(N)=O)[C@@H](O)[C@H](Oc2ccc3c(O)c(NC(=O)c4ccc(O)c(CC=C(C)C)c4)c(=O)oc3c2C)OC1(C)C` [Novobiocin]: the MIC in assay [1] (setting [5]) is 4 µM and 2 µg/mL; in assay [2] (Acinetobacter baylyi) it was 0.6 µM and 0.4 µg/mL.
